Measurements: patent publication US7807678B2, “Peptidomimetics of biologically active metallopeptides” (Palatin Technologies, Inc., priority 2001, dated 2010)

Assays:
MC4-R (HEK-293 cells) = molecular target: T1, MC4-R (HEK-293 cells) (Homo sapiens, UniProt P32245); test: cAMP assay for agonist/antagonist status, MC4-R; assay type: cell-based
T1 construct: expressed in transfected cells; host or cells: HEK-293
Experimental: (§1) The Ki (nM) of certain peptidomimetics were determined, as was the agonist/antagonist status with respect to MC4-R, Functional evaluation of compounds at melanocortin receptors was performed by measuring the accumulation of intracellular cAMP in HEK-293 cells expressing MC3-R, MC4-R or MC5-R, and in B-16 mouse melanoma cells (containing MC1-R). Antagonistic activity was determined by measuring the inhibition of α-MSH-induced cAMP levels following exposure to the compounds. Cells, suspended in Earle's Balanced Salt Solution containing 10 mM HEPES, pH 7.5, 5 mM MgCl2, 1 mM glutamine, 0.1% albumin and 0.6 mM 3-isobutyl-1-methyl-xanthine, a phosphodiesterase inhibitor, were plated in 96 well plates at a density of 0.5×10^5 cells per well. Cells were incubated with the test compounds in the presence or absence of α-MSH for 1 hour at 37° C. cAMP levels were measured by EIA (Amersham) in the cell lysates. Data analysis and EC50 values were determined using nonlinear regression analysis with Prism Graph-Pad software.

[1] = molecular target: T2, MC1-R (B-16 mouse melanoma cells) (Mus musculus, UniProt Q01727); test: Competitive inhibition binding assay, 125I-NDP-α-MSH, MC1-R; conditions: 1 μM compound; inhibition of 125I-NDP-α-MSH binding; mean of triplicates; results less than 0% reported as 0%
T2 construct: B-16 mouse melanoma cells (containing MC1-R); endogenous in cells; host or cells: B-16 mouse melanoma cells
In short: (§2)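 Membranes from hMC3-R, hMC4-R or hMC5-R cells, or B-16 mouse melanoma cells (MC1-R), were incubated 90 min at room temperature with 0.4 nM 125I-NDP-α-MSH in HEPES pH 7.2 with Mg2+/Ca2+/K+, and test compound generally at 1 μM. Filter-bound radioactivity was gamma counted. Specific binding was defined with 1 μM α-MSH; triplicate means.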

MC4-R = MC4-R (Homo sapiens, UniProt P32245); test: Competitive inhibition binding assay, 125I-NDP-α-MSH, MC4-R; design: expressed in transfected cells; conditions: 1 μM compound; inhibition of 125I-NDP-α-MSH binding; mean of triplicates; results less than 0% reported as 0%
In short: as §2

[2] = molecular target: T2, MC1-R (B-16 mouse melanoma cells); test: cAMP assay for agonist/antagonist status, MC1-R; assay type: cell-based
Experimental: as §1

MC5-R (HEK-293 cells) = molecular target: T3, MC5-R (HEK-293 cells) (Homo sapiens, UniProt P33032); test: cAMP assay for agonist/antagonist status, MC5-R; assay type: cell-based
T3 construct: expressed in transfected cells; host or cells: HEK-293
Experimental: as §1

MC3-R = MC3-R (Homo sapiens, UniProt P41968); test: Competitive inhibition binding assay, 125I-NDP-α-MSH, MC3-R; design: expressed in transfected cells; conditions: 1 μM compound; inhibition of 125I-NDP-α-MSH binding; mean of triplicates; results less than 0% reported as 0%
In short: as §2

MC5-R = MC5-R (Homo sapiens, UniProt P33032); test: Competitive inhibition binding assay, 125I-NDP-α-MSH, MC5-R; design: expressed in transfected cells; conditions: 1 μM compound; inhibition of 125I-NDP-α-MSH binding; mean of triplicates; results less than 0% reported as 0%
In short: as §2

T2 sequence (Q01727 whole entry): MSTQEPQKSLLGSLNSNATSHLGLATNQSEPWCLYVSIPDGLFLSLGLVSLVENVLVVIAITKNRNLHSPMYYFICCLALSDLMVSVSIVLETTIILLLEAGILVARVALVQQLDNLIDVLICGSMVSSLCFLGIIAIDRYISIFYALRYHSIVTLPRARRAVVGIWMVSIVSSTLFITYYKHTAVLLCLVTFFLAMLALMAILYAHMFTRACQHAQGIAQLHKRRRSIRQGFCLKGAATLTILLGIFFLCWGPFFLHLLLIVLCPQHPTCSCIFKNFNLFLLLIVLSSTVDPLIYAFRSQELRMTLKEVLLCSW
MC4-R, sequence (P32245 whole entry): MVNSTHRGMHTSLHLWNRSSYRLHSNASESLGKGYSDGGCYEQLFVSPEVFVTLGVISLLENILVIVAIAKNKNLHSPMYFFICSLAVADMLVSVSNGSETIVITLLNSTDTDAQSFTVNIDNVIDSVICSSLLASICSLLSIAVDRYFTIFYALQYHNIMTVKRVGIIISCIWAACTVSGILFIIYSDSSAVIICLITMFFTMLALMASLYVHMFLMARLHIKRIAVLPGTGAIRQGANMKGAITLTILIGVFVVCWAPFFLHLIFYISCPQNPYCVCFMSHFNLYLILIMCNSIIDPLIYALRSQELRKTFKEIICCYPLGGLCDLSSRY
T1 sequence (P32245 whole entry): as above
MC3-R, sequence (P41968 whole entry): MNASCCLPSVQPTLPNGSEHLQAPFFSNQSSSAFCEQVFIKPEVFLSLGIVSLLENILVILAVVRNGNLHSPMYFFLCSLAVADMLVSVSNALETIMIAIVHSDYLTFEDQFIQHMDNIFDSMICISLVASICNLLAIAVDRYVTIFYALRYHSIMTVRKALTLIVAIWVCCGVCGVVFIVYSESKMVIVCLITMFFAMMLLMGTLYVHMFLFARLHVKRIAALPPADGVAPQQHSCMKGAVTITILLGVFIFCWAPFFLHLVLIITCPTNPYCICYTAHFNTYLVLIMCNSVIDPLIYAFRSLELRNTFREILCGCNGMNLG
T3 sequence (P33032 whole entry): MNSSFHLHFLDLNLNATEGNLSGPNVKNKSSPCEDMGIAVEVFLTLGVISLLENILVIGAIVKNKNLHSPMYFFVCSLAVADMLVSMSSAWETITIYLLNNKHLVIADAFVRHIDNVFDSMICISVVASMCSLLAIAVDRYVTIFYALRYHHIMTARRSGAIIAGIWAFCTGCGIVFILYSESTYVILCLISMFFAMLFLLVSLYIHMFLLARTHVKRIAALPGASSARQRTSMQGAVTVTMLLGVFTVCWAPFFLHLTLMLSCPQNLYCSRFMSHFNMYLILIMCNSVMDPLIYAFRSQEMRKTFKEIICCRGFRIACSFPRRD
MC5-R, sequence (P33032 whole entry): as above

SMILES | agonist/antagonist status as to MC4-R (MC4-R (HEK-293 cells)) | Inhibition at 1 μM MC1-R [1] | Inhibition at 1 μM MC4-R (MC4-R) | agonist/antagonist status as to MC1-R [2] | agonist/antagonist status as to MC5-R (MC5-R (HEK-293 cells)) | Inhibition at 1 μM MC3-R (MC3-R) | Inhibition at 1 μM MC5-R (MC5-R)
NCCCC[C@H]1C(=O)N(CCc2ccc3ccccc3c2)CCN1C(=O)[C@@H](Cc1ccc(Cl)cc1Cl)NC(=O)[C@H]1CC[C@@H](c2ccccc2)N1 [Example 27] | agonist | 0% | 71% | agonist | agonist | 9% | 46%
NCCCC[C@H]1C(=O)N(CCc2ccc3ccccc3c2)CCN1C(=O)[C@@H](Cc1ccc(Cl)cc1Cl)NC(=O)C/C=C/c1ccccc1 [Example 33] | antagonist | 14% | 91% | antagonist | agonist | 25% | 61%
NCCCC[C@H]1C(=O)N(CCc2ccc3ccccc3c2)CCN1C(=O)[C@@H](Cc1ccc(Cl)cc1Cl)NC(=O)CCc1ccccc1 [Example 36] | antagonist | 72% | 92% | agonist | agonist | 22% | 34%
NCCCC[C@H]1C(=O)N(CCc2ccc3ccccc3c2)CCN1C(=O)[C@@H](Cc1ccc(Cl)cc1Cl)NC(=O)c1ccc(Oc2ccccc2)cc1 [Example 37] | antagonist | 35% | 99% | antagonist | agonist | 51% | 51%
NCCCC[C@H]1C(=O)N(CCc2ccc3ccccc3c2)CCN1C(=O)[C@@H](Cc1ccc(Cl)cc1Cl)NC(=O)c1cccc(Oc2ccccc2)c1 [Example 38] | antagonist | 3% | 97% | antagonist | agonist | 21% | 61%
NCCCC[C@H]1C(=O)N(CCc2ccc3ccccc3c2)CCN1C(=O)[C@@H](Cc1ccc(Cl)cc1Cl)NCc1ccc(-c2ccccc2)cc1 [Example 39] | antagonist | 0% | 85% | antagonist | agonist | 4% | 9%
NCCCC[C@H]1C(=O)N(CCc2ccc3ccccc3c2)CCN1C(=O)[C@@H](Cc1ccc(Cl)cc1Cl)NCCOCc1ccccc1 [Example 40] | antagonist | 27% | 91% | antagonist | agonist | 17% | 30%
NCCCC[C@H]1C(=O)N(CCc2ccc3ccccc3c2)CCN1C(=O)[C@@H](Cc1ccc(Cl)cc1Cl)NCc1ccc2ccccc2c1 [Example 41] | antagonist | 4% | 84% | antagonist | agonist | 4% | 2%
NC(=O)NCCC[C@H]1C(=O)N(CCc2ccc3ccccc3c2)CCN1C(=O)[C@@H](Cc1ccc(Cl)cc1Cl)NC(=O)[C@@H](N)COCc1ccccc1 [Example 44] | agonist | 8% | 94% | agonist | agonist | 43% | 66%
